Test results published in patent publication US20190195864A1, “CELL-FREE SENSOR SYSTEMS” (priority 2016, published 2019).

Assays:
tetR = target: T1, tetR (Escherichia coli, UniProt P04483); test: T7 in vitro transcription from tetR-controlled reporter plasmid, ATC titration; type: biochemical; settings: 100 nM tetR and 100 nM reporter plasmid; ATC titrated 2 uM to 0 uM; 37° C., 4 hours; agarose gel readout
T1 construct: The tetR gene was cloned into the pET28a(+) E. coli expression plasmid; 6xHis (C); made in house; host or cells: E. coli BL21(DE3), pET28a(+)
Protocol: Using a fixed amount of tetR and plasmid, 100 nM each, T7 transcription reactions were set up as described above with the inclusion of a titrating amount of anhydrotetracycline (ATC), the native ligand for tetR. The ATC titration ranged from 2 uM to 0 uM. The IVT transcripts were analyzed by gel as described above. […] This titratable response is a requirement when working with engineered sensors cell-free to enrich a population for those members with improved ligand binding function in the pool.

cells = test: cell-based dose response of TetR sensors to nootkatone (FIG. 10); settings: cell-based sensor assay
Description: This is particularly useful in situations when, inter alia, a target molecule is toxic to cells in vivo and therefore a sensor to conduct cell-based detection is impractical. […] Accordingly, the detection of this target molecule would benefit from the cell-free methods described herein.

T1 sequence (P04483 whole entry): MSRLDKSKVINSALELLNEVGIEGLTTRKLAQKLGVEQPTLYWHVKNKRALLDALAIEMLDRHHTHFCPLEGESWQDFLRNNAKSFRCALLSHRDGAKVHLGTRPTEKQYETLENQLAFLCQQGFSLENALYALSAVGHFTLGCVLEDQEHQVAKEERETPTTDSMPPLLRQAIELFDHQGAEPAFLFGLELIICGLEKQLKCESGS

Cc1c2c(c(O)c3c(O)cccc13)C(=O)[C@]1(O)C(=O)C(C(N)=O)=C(O)[C@@H](N(C)C)[C@@H]1C2 [ATC, anhydrotetracycline]
ATC concentration giving a strong RNA band similar to no tetR (full derepression of transcription) (tetR): 200 nM

C=C(C)[C@@H]1CCC2=CC(=O)C[C@@H](C)[C@]2(C)C1 [nootkatone]
nootkatone concentration after which there is a toxic effect and the cells start to die (cells): > 0.5 mg/mL
